Measured values as given in the NIST ThermoML archive (doi:10.1021/je301371p).

Assay: xn = mol fraction of the nth substance listed
Settings: 101 kPa, Liquid; for mass density: Vibrating tube method; for viscosity: Oscillating disk viscometry

NCCCCN [1,4-butanediamine] + O
Settings | mass density, 298.15 K [kg/m3] | mass density, 313.15 K [kg/m3] | mass density, 333.15 K [kg/m3] | viscosity, 303.15 K [mPa·s] | viscosity, 313.15 K [mPa·s] | viscosity, 323.15 K [mPa·s] | viscosity, 333.15 K [mPa·s]
x1 = 0.01952 | 992.346 | 986.497 | 976.433 | 1.23 | 0.98 | 0.8 | 0.63
x1 = 0.04244 | 988.532 | 981.237 | 969.713 | 1.83 | 1.39 | 1.1 | 0.9
x1 = 0.06965 | 985.772 | 976.817 | 963.518 | 2.51 | 1.85 | 1.4 | 1.06
x1 = 0.1025 | 982.813 | 972.197 | 957.323 | 3.65 | 2.57 | 1.86 | 1.37
x1 = 0.1434 | 978.544 | 966.791 | 950.667 | 4.87 | 3.29 | 2.29 | 1.62

CCN(CC)CCO [(diethylamino)ethanol] + O
Settings | mass density, 298.15 K [kg/m3] | mass density, 313.15 K [kg/m3] | mass density, 333.15 K [kg/m3] | viscosity, 298.15 K [mPa·s] | viscosity, 303.15 K [mPa·s] | viscosity, 313.15 K [mPa·s] | viscosity, 323.15 K [mPa·s] | viscosity, 333.15 K [mPa·s]
x1 = 0.02012 | 993.744 | 987.552 | 976.86 | 2.16 | 1.4 | 1.12 | 0.94 | 0.75
x1 = 0.04547 | 990.151 | 981.577 | 968.366 | 3.62 | 2.34 | 1.66 | 1.32 | 1.03
x1 = 0.07875 | 983.322 | 972.648 | 957.191 | – | 3.61 | 2.42 | 1.72 | 1.24
x1 = 0.1252 | 971.858 | 959.656 | 942.334 | 8 | 5.75 | 3.76 | 2.6 | 1.87
x1 = 0.1933 | 961.569 | 948.632 | 930.379 | 11.61 | 8.05 | 5.27 | 3.69 | 2.53

O [water] + CCN(CC)CCO
x2 = 0
Settings | mass density [kg/m3] | viscosity [mPa·s]
298.15 K | – | 0.89
303.15 K | – | 0.8
313.15 K | – | 0.65
323.15 K | – | 0.55
333.15 K | 983.2 | 0.48

O [water] + NCCCCN
x2 = 0
Settings | mass density [kg/m3] | viscosity [mPa·s]
298.15 K | – | 0.89
303.15 K | – | 0.8
313.15 K | – | 0.65
323.15 K | – | 0.55
333.15 K | 983.2 | 0.48
